Measurements taken from paper PMC8318231, “Rate-of-Kill (RoK) assays to triage large compound sets for Chagas disease drug discovery: Application to GSK Chagas Box” (PLoS Neglected Tropical Diseases, 2021).

How the values were obtained:
[1] = tested on: T. cruzi Tulahuen trypomastigotes; experiment: T. cruzi trypomastigote assay (Cell Titer-Glo viability, ATP luminescence); assay type: cell-based, Trypanosoma cruzi; conditions: for Trypomastigotes pIC50 48 hours: 48 hours incubation; for Trypomastigotes pIC50 48 hours / Trypomastigotes pIC50 72 hours: pIC50 = -log10 IC50 in molar units; for Trypomastigotes pIC50 72 hours: 72 hours incubation; for 72 pIC50 (trypomastigotes, raw data of Fig 1D): 72 hours, plotted values, censored values given without sign; for 48 pIC50 / 72 pIC50: trypomastigote assay; for 48 pIC50: 48 h; for 72 pIC50: 72 h; for activity in trypomastigotes assay (in words): 48 and 72 hours
Summary of the method: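 Compounds were tested in dose response or once at a final 5 μM against 5 × 10^4 trypomastigotes per well (DMEM, 2% FBS), collected on days 5–8 from LLC-MK2 infected cultures. ATP luminescence via CellTiter-Glo reports live parasites; DMSO defines 0% and cell-free wells 100% effect.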

[2] = tested on: T. cruzi intracellular amastigotes in H9c2 cells; experiment: Rate-of-Kill (RoK) high-content imaging assay, amastigotes per cell (AM/CELL) and curve descriptors; assay type: cell-based, Trypanosoma cruzi; set-up: key to ME_24h / ME_48h / ME_72h: % reduction in parasite burden (cidal response); t50pct_MCC50 / t50pct_Cmax: unit not given here; conditions: for ME_24h: 24h; for ME_48h: 48h; for ME_72h: 72h; for tlag_Cmax / t50pct_Cmax / t50%_Cmax: at Cmax; for ME_24h (%): maximum effect at 24 h; for ME_24h (%) / ME_48h (%) / ME_72h (%): RoK assay; for ME_48h (%): maximum effect at 48 h; for ME_72h (%): maximum effect at 72 h; for ME 24h (maximum effect at 24 hours, intracellular amastigotes): maximum percentage of parasite burden reduction reached by any concentration
Summary of the method: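 Readouts at each time point are amastigotes per cell and host nuclei count (cytotoxicity), from DRAQ5 high-content imaging. Infection: trypomastigotes on H9c2 at MOI 8 for 18 h. Dosing was 5 μM single point or 11 points, 1/3 steps from 50 μM. Effect scaled between 4 h infected and uninfected controls.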

| SMILES | Trypomastigotes pIC50 48 hours [1] | Trypomastigotes pIC50 72 hours [1] | ME_24h ([2]; figure 5) | ME_48h ([2]; figure 5) | ME_72h ([2]; figure 5) | MCC50 ([2]; RoK curve descriptor) [µM] | MCCE ([2]; RoK curve descriptor) [µM] | tlag_Cmax [2] [h] | t50pct_Cmax ([2]; figure 5) | tlag_Cmax ([2]; figure 5) | t50%_MCC50 ([2]; at MCC50) [h] | tlag_MCC50 ([2]; at MCC50) [h] | t50pct_MCC50 ([2]; at MCC50, figure 5) | tlag_MCC50 ([2]; at MCC50, figure 5) | MCCE ([2]; figure 5) | MCC50 ([2]; figure 5, in µM) | ME_24h (%) [2] [%] | ME_48h (%) [2] [%] | ME_72h (%) [2] [%] | ME 24h (maximum effect at 24 hours, intracellular amastigotes) [2] [%] | other results |
| --- | --- | --- | --- | --- | --- | --- | --- | --- | --- | --- | --- | --- | --- | --- | --- | --- | --- | --- | --- | --- | --- |
| CS(=O)(=O)c1cccc(CNC(=O)c2cncc(N3CCN(c4ccc(F)cc4)CC3)c2)c1.O=C(O)C(F)(F)F.O=C(O)C(F)(F)F.O=C(O)C(F)(F)F [TCMDC-143385] | < 4.3 | < 4.3 | -140.527 | 14.5657 | 58.9567 | 1.9 | 8.6 | 24.0 | 72 | 24 | 72.0 | 24.0 | 72 | 48 | 8.642 | 25.9259 | -140.5 | 14.6 | 59.0 | -76.6949 | 72 pIC50 (trypomastigotes, raw data of Fig 1D) [1]: < 4.3; 48 pIC50 ([1]; figure 1A): < 4.3; 72 pIC50 ([1]; figure 1A): < 4.3; 72 pIC50 ([1]; figure 1B): < 4.3; AM/CELL NORM ([2]; Time 4, sheet figure 4 A): -2.309; AM/CELL NORM ([2]; Time 24, sheet figure 4 A): -204.359; AM/CELL NORM ([2]; Time 48, sheet figure 4 A): 18.8519; AM/CELL NORM ([2]; Time 72, sheet figure 4 A): 47.2855 |
| CN1CCCN(C(=O)c2ccc(N3CCCC3)cc2Cl)CC1 [TCMDC-143127] | < 4.3 | < 4.3 | -63.1294 | 41.4777 | 77.6777 | 7.0 | 1.9 | 24.0 | 67.2 | 24 | 72.0 | 24.0 | 72 | 24 | 1.852 | 7.037 | -63.1 | 41.5 | 77.7 | -38.4049 | 72 pIC50 (trypomastigotes, raw data of Fig 1D) [1]: < 4.3; 48 pIC50 ([1]; figure 1A): < 4.3; 72 pIC50 ([1]; figure 1A): < 4.3; 72 pIC50 ([1]; figure 1B): < 4.3; AM/CELL NORM ([2]; Time 4, sheet figure 4 A): 3.238; AM/CELL NORM ([2]; Time 24, sheet figure 4 A): -70.995; AM/CELL NORM ([2]; Time 48, sheet figure 4 A): 17.9659; AM/CELL NORM ([2]; Time 72, sheet figure 4 A): 59.5367; t50%_Cmax [2]: 67.2 h |
| COc1ccc(NS(=O)(=O)c2cc(NC(=O)c3ccc([N+](=O)[O-])s3)ccc2OC)cc1 [TCMDC-143163] | 6.9 | 6.6 | 71.4836 | 99.4358 | 93.6846 | 0.2 | 0.2 | 4.0 | 24 | 4 | 48.0 | 24.0 | 48 | 24 | 0.2058 | 0.2058 | 71.5 | 99.4 | 93.7 | 71.4836 | activity in trypomastigotes assay (in words) [1]: potent activity; AM/CELL NORM ([2]; Time 4, sheet figure 4 A): 10.6053; AM/CELL NORM ([2]; Time 24, sheet figure 4 A): 69.9764; AM/CELL NORM ([2]; Time 48, sheet figure 4 A): 96.1683; AM/CELL NORM ([2]; Time 72, sheet figure 4 A): 85.8906; t50%_Cmax [2]: 24.0 h |
| COc1ccc(-c2nc3ncccc3o2)cc1NC(=O)c1cccs1 [TCMDC-143137] | < 4.3 | 5.2 | 22.8714 | 76.8526 | 102.262 | 16.7 | 5.6 | 4.0 | 48 | 4 | 48.0 | 4.0 | 48 | 4 | 5.556 | 16.6667 | 22.9 | 76.9 | 102.3 | 22.8714 | activity in trypomastigotes assay (in words) [1]: only active in trypomastigote assay at 72 hours; cidality in the RoK assay (in words) [2]: not signs of cidality at 24 hours; ME / cidal effect at 72 hours ([2]; 72 hours): 100%; AM/CELL NORM ([2]; Time 4, sheet figure 4 A): -5.518; AM/CELL NORM ([2]; Time 24, sheet figure 4 A): 19.5521; AM/CELL NORM ([2]; Time 48, sheet figure 4 A): 76.8526; AM/CELL NORM ([2]; Time 72, sheet figure 4 A): 68.9196; t50%_Cmax [2]: 48.0 h |
| Cc1nccn1C1CCCN(C(=O)c2cc3c(F)cccc3s2)C1 (centres unmarked) [TCMDC-143498] | 4.7 | 4.7 | 32.6582 | 54.1455 | 68.2465 | 4.6 | 1.9 | 8.0 | 48 | 8 | 72.0 | 24.0 | 72 | 33.6 | 1.852 | 13.7037 | 32.7 | 54.2 | 68.3 | 52.5921 | 72 pIC50 (trypomastigotes, raw data of Fig 1D) [1]: 4.7; 48 pIC50 ([1]; figure 1A): 4.7; 72 pIC50 ([1]; figure 1A): 4.7; 72 pIC50 ([1]; figure 1B): 4.7; AM/CELL NORM ([2]; Time 4, figure 4 A): 21.9505; AM/CELL NORM ([2]; Time 24, figure 4 A): 50.5271; AM/CELL NORM ([2]; Time 48, figure 4 A): 69.4926; AM/CELL NORM ([2]; Time 72, figure 4 A): 61.0854; t50%_Cmax [2]: 48.0 h |
